From PMC11995724, “Antibiotic target discovery by integrated phenotypic and activity-based profiling of electrophilic fragments” (Cell chemical biology, 2025)

Assay: in vitro
Settings: human, hek293t cells

| Compound | viability at 48 h, 25 µM |
| --- | --- |
| N#CC(=Cc1csc(COc2ccccc2)n1)C(N)=O [9-B12, 2-cyano-3-[2-(phenoxymethyl)-1,3-thiazol-4-yl]prop-2-enamide] | 116% |
| CC(Cl)C(=O)NCC1(n2ccnn2)CC1 (centres unmarked) [6-B20, 2-chloro-N-{[1-(1H-1,2,3-triazol-1-yl)cyclopropyl]methyl}propanamide] | 104% |
| C=CC(=O)NCCc1coc(-c2ccc(C)cc2)n1 [1-M06, N-{2-[2-(4-methylphenyl)-1,3-oxazol-4-yl]ethyl}prop-2-enamide] | 68.3% |
| COc1ccc(C(=O)CCl)c2c1C(=O)CO2 [10-N05, 7-(2-chloroacetyl)-4-methoxy-2,3-dihydro-1-benzofuran-3-one] | 92.2% |
| CC(Cl)C(=O)N(CCC#N)c1ccccc1 (centres unmarked) [6-M18, 2-chloro-N-(2-cyanoethyl)-N-phenylpropanamide] | 105% |
| C=CC(=O)N1CC2(CCCC2)CC1CO (centres unmarked) [2-I19, 1-[3-(hydroxymethyl)-2-azaspiro[4.4]nonan-2-yl]prop-2-en-1-one] | 82.4% |
| CC(NC(=O)CCl)c1cc(F)ccc1N(C)C (centres unmarked) [5-L11, 2-chloro-N-{1-[2-(dimethylamino)-5-fluorophenyl]ethyl}acetamide] | 9.52% |
| C=CC(=O)N1CCC(Cc2nc3ccc(F)cc3o2)CC1 [3-O07, 1-{4-[(6-fluoro-1,3-benzoxazol-2-yl)methyl]piperidin-1-yl}prop-2-en-1-one] | 47.3% |
| O=C(Cc1cccc(F)c1)N1CCSSCC1 [10-L21, 1-(1,2,5-dithiazepan-5-yl)-2-(3-fluorophenyl)ethan-1-one] | 108% |
| CCOc1cc2c(cc1C=C(C#N)C(N)=O)OC(C)C2 (centres unmarked) [9-D04, 2-cyano-3-(5-ethoxy-2-methyl-2,3-dihydro-1-benzofuran-6-yl)prop-2-enamide] | 128% |
| Cc1cccc(N(Cc2c(C3CC3)cnn2C)C(=O)CCl)c1 [5-D07, 2-chloro-N-[(4-cyclopropyl-1-methyl-1H-pyrazol-5-yl)methyl]-N-(3-methylphenyl)acetamide] | 0.857% |
| O=C(CCl)N1CCOCC1c1noc(-c2ccccc2)n1 (centres unmarked) [5-E10, 2-chloro-1-[3-(5-phenyl-1,2,4-oxadiazol-3-yl)morpholin-4-yl]ethan-1-one] | 1.07% |
| Cc1ccc(NC(=O)CCl)cc1[N+](=O)[O-] [4-M13, 2-chloro-N-(4-methyl-3-nitrophenyl)acetamide] | 59.2% |
| C=CC(=O)NC1CCN(c2ccccc2S(=O)(=O)CC)CC1 [2-M03, N-{1-[2-(ethanesulfonyl)phenyl]piperidin-4-yl}prop-2-enamide] | 82.2% |
| C=CC(=O)N[C@H](C)c1ccccc1OC(C)C [3-N16, N-[(1R)-1-[2-(propan-2-yloxy)phenyl]ethyl]prop-2-enamide] | 82.5% |
| CC(Cl)C(=O)N[C@H](CC(N)=O)c1cccc(Cl)c1 (stereo partly drawn) [7-O09, (3R)-3-(3-chlorophenyl)-3-(2-chloropropanamido)propanamide] | 102% |
| O=C(CCl)N(CC1=CCSC1)c1ccccc1 [4-F11, 2-chloro-N-[(2,5-dihydrothiophen-3-yl)methyl]-N-phenylacetamide] | 0.548% |
| CN(c1ccccc1)S(=O)(=O)c1cccc(NC(=O)CCl)c1 [4-H04, 2-chloro-N-{3-[methyl(phenyl)sulfamoyl]phenyl}acetamide] | 0.751% |
| CCC(C)c1ccccc1NC(=O)C(C)Cl (centres unmarked) [4-O10, N-[2-(butan-2-yl)phenyl]-2-chloropropanamide] | 85.1% |
| C=CCNC(=O)C(C#N)=Cc1ccc(C(=O)O)cc1 [8-J04, 4-{2-cyano-2-[(prop-2-en-1-yl)carbamoyl]eth-1-en-1-yl}benzoic acid] | 87.1% |
| O=C(CCl)Nc1ccc(S(=O)(=O)Nc2ccccc2)cc1 [5-K22, 2-chloro-N-[4-(phenylsulfamoyl)phenyl]acetamide] | 1.09% |
| CCCSc1nsc(NC(=O)CCl)n1 [4-G15, 2-chloro-N-[3-(propylsulfanyl)-1,2,4-thiadiazol-5-yl]acetamide] | 17.4% |
| Cc1cc(C(=O)CCl)c(C)n1CCc1ccc(F)cc1 [10-G14, 2-chloro-1-{1-[2-(4-fluorophenyl)ethyl]-2,5-dimethyl-1H-pyrrol-3-yl}ethan-1-one] | 0.499% |
| CC(C)C(NC(=O)CCl)c1ccc(Cl)cc1F (centres unmarked) [7-J22, 2-chloro-N-[1-(4-chloro-2-fluorophenyl)-2-methylpropyl]acetamide] | 0.584% |
| C=CC(=O)N1CCN(C(C)c2nc(C)no2)CC1 (centres unmarked) [3-M11, 1-{4-[1-(3-methyl-1,2,4-oxadiazol-5-yl)ethyl]piperazin-1-yl}prop-2-en-1-one] | 61% |
| O=C(CCl)c1cc(Cl)ccc1Cl [10-E16, 2-chloro-1-(2,5-dichlorophenyl)ethan-1-one] | 4.26% |
| O=C(CCl)NCC(=O)N1CCC(Cc2ccccc2)CC1 [6-F04, N-[2-(4-benzylpiperidin-1-yl)-2-oxoethyl]-2-chloroacetamide] | 21.7% |

| Compound | viability at 48 h, 25 µM |
| --- | --- |
| N#CCCN(Cc1ccco1)C(=O)CCl [5-D20, 2-chloro-N-(2-cyanoethyl)-N-[(furan-2-yl)methyl]acetamide] | 1.25% |
| O=C(CCl)N[C@H]1CCCc2ccccc21 [6-I21, 2-chloro-N-[(1S)-1,2,3,4-tetrahydronaphthalen-1-yl]acetamide] | 24% |
| C=CC(=O)NC1CCN(S(N)(=O)=O)CC1 [1-K18, N-(1-sulfamoylpiperidin-4-yl)prop-2-enamide] | 93.7% |
| CC(Cl)C(=O)N1CCc2ncccc2C1 (centres unmarked) [7-I19, 2-chloro-1-(5,6,7,8-tetrahydro-1,6-naphthyridin-6-yl)propan-1-one] | 98.1% |
| CC(C)Oc1ccccc1C=C(C#N)C(=O)Nc1cccc(Cl)c1 [9-P20, N-(3-chlorophenyl)-2-cyano-3-[2-(propan-2-yloxy)phenyl]prop-2-enamide] | 107% |
| C=CC(=O)N(Cc1nccc2c1CCCC2)C1CCCC(OC)C1 (centres unmarked) [1-F11, N-(3-methoxycyclohexyl)-N-[(5,6,7,8-tetrahydroisoquinolin-1-yl)methyl]prop-2-enamide] | 100% |
| C=CC(=O)NCc1cn2c(n1)CCCC2 [3-L20, N-({5H,6H,7H,8H-imidazo[1,2-a]pyridin-2-yl}methyl)prop-2-enamide] | 103% |
| COCc1noc(CN2CCN(C(=O)C(C)Cl)CC2)n1 (centres unmarked) [7-I06, 2-chloro-1-(4-{[3-(methoxymethyl)-1,2,4-oxadiazol-5-yl]methyl}piperazin-1-yl)propan-1-one] | 88.7% |
| O=C(CCl)NCc1ccccc1SC(F)(F)F [7-N12, 2-chloro-N-({2-[(trifluoromethyl)sulfanyl]phenyl}methyl)acetamide] | 0.794% |
| C=CC(=O)N1CCC(C(=O)OCC)(S(C)(=O)=O)CC1 [3-H04, ethyl 4-methanesulfonyl-1-(prop-2-enoyl)piperidine-4-carboxylate] | 93.3% |
| COC1CCN(c2ccc(F)cc2CN(C)C(=O)C(C)Cl)CC1 (centres unmarked) [7-I11, 2-chloro-N-{[5-fluoro-2-(4-methoxypiperidin-1-yl)phenyl]methyl}-N-methylpropanamide] | 94.9% |
| CC(Cl)C(=O)Nc1ccccc1C#N (centres unmarked) [6-A11, 2-chloro-N-(2-cyanophenyl)propanamide] | 97.2% |
| O=C(CCl)N(Cc1ccc2c(c1)CCO2)C1CCCC1 [6-L11, 2-chloro-N-cyclopentyl-N-[(2,3-dihydro-1-benzofuran-5-yl)methyl]acetamide] | 0.358% |
| C=CC(=O)N1CCN(S(=O)(=O)c2ccc(C(C)(C)C)cc2)CC1 [3-A19, 1-[4-(4-tert-butylbenzenesulfonyl)piperazin-1-yl]prop-2-en-1-one] | 24.5% |
| N#CC(=Cc1c(Cl)cccc1Cl)C(=O)NCc1ccco1 [9-K06, 2-cyano-3-(2,6-dichlorophenyl)-N-[(furan-2-yl)methyl]prop-2-enamide] | 29.2% |
| C=CC(=O)NCCCc1conc1C [2-N13, N-[3-(3-methyl-1,2-oxazol-4-yl)propyl]prop-2-enamide] | 70.3% |
| O=C(CCl)N1CC(S(=O)(=O)Nc2ccccc2)C1 [5-G10, 1-(2-chloroacetyl)-N-phenylazetidine-3-sulfonamide] | 1.28% |
| CC(Cl)C(=O)NCC(NS(=O)(=O)N(C)C)C1CCCC1 (centres unmarked) [7-G16, 2-chloro-N-{2-cyclopentyl-2-[(dimethylsulfamoyl)amino]ethyl}propanamide] | 91.3% |
| CC(Cl)C(=O)NC1CCCn2nccc21 (centres unmarked) [6-J16, 2-chloro-N-{4H,5H,6H,7H-pyrazolo[1,5-a]pyridin-4-yl}propanamide] | 113% |
| O=C(CCl)NCCc1cccc2ccccc12 [6-E14, 2-chloro-N-[2-(naphthalen-1-yl)ethyl]acetamide] | 4.85% |
| Cc1nn(CC(F)(F)F)c(C)c1C1COCCN1C(=O)CCl (centres unmarked) [5-J13, 2-chloro-1-{3-[3,5-dimethyl-1-(2,2,2-trifluoroethyl)-1H-pyrazol-4-yl]morpholin-4-yl}ethan-1-one] | 2.86% |
| C=CC(=O)N1CCc2c(nnn2CCOC)C1 [1-N05, 1-[1-(2-methoxyethyl)-1H,4H,5H,6H,7H-[1,2,3]triazolo[4,5-c]pyridin-5-yl]prop-2-en-1-one] | 105% |
| CC1CC(NC(=O)CCl)C(=O)N1c1cnn(C)c1 (centres unmarked) [5-O08, 2-chloro-N-[5-methyl-1-(1-methyl-1H-pyrazol-4-yl)-2-oxopyrrolidin-3-yl]acetamide] | 100% |
| CC(Cl)C(=O)N1N=C(c2ccc(Cl)cc2)CC1c1ccco1 (centres unmarked) [5-H18, 2-chloro-1-[3-(4-chlorophenyl)-5-(furan-2-yl)-4,5-dihydro-1H-pyrazol-1-yl]propan-1-one] | 78.1% |
| Cc1nc2cc(NC(=O)C(C#N)=Cc3ccco3)ccc2n1C [9-B18, 2-cyano-N-(1,2-dimethyl-1H-1,3-benzodiazol-5-yl)-3-(furan-2-yl)prop-2-enamide] | 106% |
| C=CC(=O)N1CCCC(C2CCN(C(=O)c3cc(C)nn3C)CC2)C1 (centres unmarked) [1-P22, 1-[1'-(1,3-dimethyl-1H-pyrazole-5-carbonyl)-[3,4'-bipiperidin]-1-yl]prop-2-en-1-one] | 55.9% |
